Source: patent US11834448B2, “2-amino-quinoline derivatives” (BIRDIE BIOPHARMACEUTICALS, INC., priority 2017, dated 2023)

Columns and labels:
[1] = system: Human PBMCs; assay: Cytokine production in PBMCs: human IL-6 by ELISA; format: cell-based; design: key: ″+″ means that there was production of IFNa or IL-6 on PBMC; ″−″means that noproduction of IFNa or IL-6 on PBMC was detected; settings: compounds tested at concentration of 10 uM; human PBMCs cultured 20-22 hours; supernatant ELISA
Procedure: (§1) The compound functionality was tested for some of the compounds prepared by stimulation and determination of cytokine production in PBMCs.
(§2) Human PBMCs were prepared from buffy coat obtained from healthy volunteer donor by Ficoll centrifugation and were adjusted to the final cell concentration to 1×10^6 cells/mL.
(§3) For evaluation of compound activities, 1×10^5 PBMCs were plated in a 96-well plate in 100 μl of RPMI 1640 complete medium (cat no. 31800-022, GIBCO by Life Technologies, Grand Island, NY, USA) supplemented with 10% fetal bovine serum, the tested compound was first dissolved in DMSO and further diluted in PBS and RPMI 1640 medium to the final concentration of […] (corresponding to 6.28 μg/mL), then 3-fold serially dilution was made in a 96-well round-bottom plate. 100 μl diluted compound was added to the same volume of 1×10^5 PBMCs plate and cultured for 20-22 hours at 37° C. in a humidified atmosphere of 5% CO2. The supernatant was collected for human IFN-α, IL12(p70) and IL-6 analysis by ELISA assay according to the manufacturer's instructions (Mabtech AB, Sweden). Resiquimod was used as a positive control.

[2] = system: Human PBMCs; assay: Cytokine production in PBMCs: human IFN-α by ELISA; format: cell-based; design: key: ″+″ means that there was production of IFNa or IL-6 on PBMC; ″−″means that noproduction of IFNa or IL-6 on PBMC was detected; settings: compounds tested at concentration of 10 uM; human PBMCs cultured 20-22 hours; supernatant ELISA
Procedure: as §1, §2, §3

| Structure (SMILES) | Production of IL−6 on PBMC [1] | Production of IFNa on PBMC [2] |
| --- | --- | --- |
| COCCc1nc2c(N)nc3cccc(OCCC(C)(C)O)c3c2[nH]1 [Compound 9, 4-((4-amino-2-(2-methoxyethyl)-1H-imidazo[4,5-c]quinolin-9-yl)oxy)-2-methylbutan-2-ol] | + |  |
| CCOCc1nc2c(N)nc3cccc4c3c2n1C[C@H](O)CO4 [Compound 45, (S)-2-amino-12-(ethoxymethyl)-6,7-dihydro-5H-3,4-(azenometheno)[1,5]oxazocino-[4,3,2-de]quinolin-6-ol] | + |  |
| CCOCc1nc2c(N)nc3cccc(OCCCNS(C)(=O)=O)c3c2n1C [Compound 19, N-(3-((4-amino-2-(ethoxymethyl)-1-methyl-1H-imidazo[4,5-c]quinolin-9-yl)oxy)propyl)methanesulfonamide] | + | + |
| CCOCc1nc2c(N)nc3cccc4c3c2n1C[C@](C)(O)CO4 [Compound 42, (S)-2-amino-12-(ethoxymethyl)-6-methyl-6,7-dihydro-5H-3,4-(azenometheno)[1,5]oxazocino[4,3,2-de]quinolin-6-ol] | + | + |
| COc1cccc2nc(N)c3nc(CCO)n(CC(C)(C)O)c3c12 [Compound 4, 1-(4-amino-2-(2-hydroxyethyl)-9-methoxy-1H-imidazo[4,5-c]quinolin-1-yl)-2-methylpropan-2-ol] | − | − |
| CCOCc1nc2c(N)nc3cccc(OC)c3c2n1CCC(C)(C)O [Compound 14, 4-(4-amino-2-(ethoxymethyl)-9-methoxy-1H-imidazo[4,5-c]quinolin-1-yl)-2-methylbutan-2-ol] | + | + |
| CCOCc1nc2c(N)nc3cccc4c3c2n1CCO4 [Compound 39, 2-(ethoxymethyl)-3,4-dihydro-5-oxa-1,2a,9-triazanaphtho[2,1,8-cde]azulen-10-amine] | + | + |
| CCOCc1nc2c(N)nc3cccc(OCCC(C)(C)O)c3c2n1C [Compound 10, 4-((4-amino-2-(ethoxymethyl)-1-methyl-1H-imidazo[4,5-c]quinolin-9-yl)oxy)-2-methylbutan-2-ol] | + |  |
| CCCCCCCCCCCCCCCCCC(=O)NCCCOc1cccc2nc(N)c3nc(COCC)n(C)c3c12 [Compound 23, N-(3-((4-amino-2-(ethoxymethyl)-1-methyl-1H-imidazo[4,5-c]quinolin-9-yl)oxy)propyl)stearamide] | + | + |
| CCOCc1nc2c(N)nc3cccc4c3c2n1C[C@@](C)(O)CO4 [Compound 43, (R)-2-amino-12-(ethoxymethyl)-6-methyl-6,7-dihydro-5H-3,4-(azenometheno)[1,5]oxazocino[4,3,2-de]quinolin-6-ol] | − |  |
| CCOCc1nc2c(N)nc3cccc(OCCCCNC(C)=O)c3c2n1C [Compound 24, N-(4-((4-amino-2-(ethoxymethyl)-1-methyl-1H-imidazo[4,5-c]quinolin-9-yl)oxy)butyl)acetamide] | + | + |
| CCOCc1nc2c(N)nc3cccc4c3c2n1CC(=O)CO4 [Compound 46, 2-amino-12-(ethoxymethyl)-5H-3,4-(azenometheno)[1,5]oxazocino[4,3,2-de]quinolin-6(7H)-one] | + |  |
| CCOCc1nc2c(N)nc3cccc(OCCC(C)(C)O)c3c2[nH]1 [Compound 5, 4-((4-amino-2-(ethoxymethyl)-1H-imidazo[4,5-c]quinolin-9-yl)oxy)-2-methylbutan-2-ol] | + | + |
| CCOCc1nc2c(N)nc3cccc(OCC(C)C)c3c2[nH]1 [Compound 15, 2-(ethoxymethyl)-9-isobutoxy-1H-imidazo[4,5-c]quinolin-4-amine] | + | + |
| CCOCc1nc2c(N)nc3cccc(OCCC(C)(C)O)c3c2n1CC(C)C [Compound 12, 4-((4-amino-2-(ethoxymethyl)-1-isobutyl-1H-imidazo[4,5-c]quinolin-9-yl)oxy)-2-methylbutan-2-ol] | + | + |
| CCOCc1nc2c(N)nc3cccc(OCCC(C)C)c3c2[nH]1 [Compound 6, 2-(ethoxymethyl)-9-(isopentyloxy)-1H-imidazo[4,5-c]quinolin-4-amine] | + |  |
| CCOCc1nc2c(N)nc3cccc(OCC(C)O)c3c2[nH]1 (centres unmarked) [Compound 8, 1-((4-amino-2-(ethoxymethyl)-1H-imidazo[4,5-c]quinolin-9-yl)oxy)propan-2-ol] | + | + |

| Structure (SMILES) | Production of IL−6 on PBMC [1] | Production of IFNa on PBMC [2] |
| --- | --- | --- |
| CCOCc1nc2c(N)nc3cccc(OC(C)C)c3c2n1C [Compound 37, 2-(ethoxymethyl)-9-isopropoxy-1-methyl-1H-imidazo[4,5-c]quinolin-4-amine] | + | + |
| CCOCc1nc2c(N)nc3cccc(OC)c3c2n1CC(C)C [Compound 2, 2-(ethoxymethyl)-1-isobutyl-9-methoxy-1H-imidazo[4,5-c]quinolin-4-amine] | + | + |
| CCCCCCCCCCCCCCCCCC(=O)NCCCCOc1cccc2nc(N)c3nc(COCC)n(C)c3c12 [Compound 25, N-(4-((4-amino-2-(ethoxymethyl)-1-methyl-1H-imidazo[4,5-c]quinolin-9-yl)oxy)butyl)-stearamide] | + | + |
| CC(C)CCn1cc2c(n1)c(N)nc1cccc(O)c12 [Compound 31, 4-amino-2-isopentyl-2H-pyrazolo[3,4-c]quinolin-9-ol] | − | − |
| CCOCc1nc2c(N)nc3cccc4c3c2n1[C@@H](C(C)(C)O)CO4 [Compound 40, (R)-2-(10-amino-2-(ethoxymethyl)-3,4-dihydro-5-oxa-1,2a,9-triazanaphtho[2,1,8-cde]azulen-3-yl)propan-2-ol] | − |  |
| CCOCc1nc2c(N)nc3cccc(OC4CCNCC4)c3c2n1C [Compound 29, 2-(ethoxymethyl)-1-methyl-9-(piperidin-4-yloxy)-1H-imidazo[4,5-c]quinolin-4-amine] | + | + |
| CCOCc1nc2c(N)nc3cccc(OC4CCOC4)c3c2n1C (centres unmarked) [Compound 27, 2-(ethoxymethyl)-1-methyl-9-((tetrahydrofuran-3-yl)oxy)-1H-imidazo[4,5-c]quinolin-4-amine] | + | + |
| CCOCc1nc2c(N)nc3cccc(OCCOCCNS(C)(=O)=O)c3c2n1C [Compound 20, N-(2-(2-((4-amino-2-(ethoxymethyl)-1-methyl-1H-imidazo[4,5-c]quinolin-9-yl)oxy)ethoxy)ethyl)-methanesulfonamide] | + | + |
| CCCCn1cc2c(n1)c(N)nc1cccc(OCCC(C)C)c12 [Compound 33, 2-butyl-9-(isopentyloxy)-2H-pyrazolo[3,4-c]quinolin-4-amine] | + | − |
| CCOCc1nc2c(N)nc3cccc(OCC(C)(C)O)c3c2n1C [Compound 38, 1-((4-amino-2-(ethoxymethyl)-1-methyl-1H-imidazo[4,5-c]quinolin-9-yl)oxy)-2-methylpropan-2-ol] | + | + |
| CCOCc1nc2c(N)nc3cccc4c3c2n1[C@H](C(C)(C)O)CO4 [Compound 41, (S)-2-(10-amino-2-(ethoxymethyl)-3,4-dihydro-5-oxa-1,2a,9-triazanaphtho[2,1,8-cde]azulen-3-yl)propan-2-ol] | + |  |
| CCOCc1nc2c(N)nc3cccc4c3c2n1C[C@@H](O)CO4 [Compound 44, (R)-2-amino-12-(ethoxymethyl)-6,7-dihydro-5H-3,4-(azenometheno)[1,5]oxazocino[4,3,2-de]quinolin-6-ol] | − |  |
| CCOCc1nc2c(N)nc3cccc(OCCCN)c3c2n1C [Compound 36, 9-(3-aminopropoxy)-2-(ethoxymethyl)-1-methyl-1H-imidazo[4,5-c]quinolin-4-amine] | + | + |
| CCCCCCCCCCCCCCCC(=O)NCCCOc1cccc2nc(N)c3nc(COCC)n(C)c3c12 [Compound 34, N-(3-((4-amino-2-(ethoxymethyl)-1-methyl-1H-imidazo[4,5-c]quinolin-9-yl)oxy)propyl)palmitamide] | + | + |
| CCOCc1nc2c(N)nc3cccc(OC4CCNC4)c3c2n1C (centres unmarked) [Compound 28, 2-(ethoxymethyl)-1-methyl-9-(pyrrolidin-3-yloxy)-1H-imidazo[4,5-c]quinolin-4-amine] | + | + |
| CCOCc1nc2c(N)nc3cccc(OCCC(C)O)c3c2[nH]1 (centres unmarked) [Compound 7, 4-((4-amino-2-(ethoxymethyl)-1H-imidazo[4,5-c]quinolin-9-yl)oxy)butan-2-ol] | + |  |
